Earlier results, collected in US10813929B2, “Treating cancer with ATR inhibitors” (VERTEX PHARMACEUTICALS INCORPORATED, priority 2011, dated 2020).

Test system: pancreatic cancer
Details: treatment with gemcitabine, increased from 10%; cited from earlier work

Compound: Nc1ccn([C@@H]2O[C@H](CO)[C@@H](O)C2(F)F)c(=O)n1 [gemcitabine]
- 5-year survival: 20%
